One compound from ChEMBL document CHEMBL1133403 (Bioorg Med Chem Lett, 2000) can be followed below.

Type in all cases: functional
Assay [1] deals with T1, Mineralocorticoid receptor (Homo sapiens) (UniProt P08235).
T1 sequence (whole entry): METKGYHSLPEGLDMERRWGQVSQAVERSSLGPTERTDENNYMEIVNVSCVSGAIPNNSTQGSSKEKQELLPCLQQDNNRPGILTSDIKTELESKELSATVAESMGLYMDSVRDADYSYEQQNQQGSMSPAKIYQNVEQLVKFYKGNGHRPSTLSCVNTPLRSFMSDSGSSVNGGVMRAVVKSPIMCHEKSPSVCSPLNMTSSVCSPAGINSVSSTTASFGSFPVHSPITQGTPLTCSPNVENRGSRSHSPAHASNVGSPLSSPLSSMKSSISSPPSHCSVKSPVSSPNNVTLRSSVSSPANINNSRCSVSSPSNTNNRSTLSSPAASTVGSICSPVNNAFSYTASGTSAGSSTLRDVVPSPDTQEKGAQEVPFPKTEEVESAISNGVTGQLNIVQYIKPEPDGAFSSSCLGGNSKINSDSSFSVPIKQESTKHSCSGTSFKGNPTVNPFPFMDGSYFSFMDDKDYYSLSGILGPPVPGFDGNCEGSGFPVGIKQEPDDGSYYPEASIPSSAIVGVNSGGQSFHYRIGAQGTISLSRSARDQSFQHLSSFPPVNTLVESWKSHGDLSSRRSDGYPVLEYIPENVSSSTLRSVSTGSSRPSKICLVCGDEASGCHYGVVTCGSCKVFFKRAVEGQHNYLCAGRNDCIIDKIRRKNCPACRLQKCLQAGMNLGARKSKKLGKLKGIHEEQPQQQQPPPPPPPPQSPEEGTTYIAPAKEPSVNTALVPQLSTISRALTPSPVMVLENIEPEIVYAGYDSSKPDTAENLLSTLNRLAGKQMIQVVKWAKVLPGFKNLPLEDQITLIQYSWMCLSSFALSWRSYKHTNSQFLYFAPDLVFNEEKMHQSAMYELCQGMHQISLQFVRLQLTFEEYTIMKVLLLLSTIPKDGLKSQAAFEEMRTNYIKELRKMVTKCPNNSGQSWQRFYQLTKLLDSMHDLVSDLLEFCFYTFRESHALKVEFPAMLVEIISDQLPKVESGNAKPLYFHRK
Kind of assay: Percent inhibition of mineralocorticoid receptor transcriptional activity at aldosterone EC50; NA=not active.

The target of assay [2] is T2, Glucocorticoid receptor (Homo sapiens) (UniProt P04150).
T2 sequence (whole entry): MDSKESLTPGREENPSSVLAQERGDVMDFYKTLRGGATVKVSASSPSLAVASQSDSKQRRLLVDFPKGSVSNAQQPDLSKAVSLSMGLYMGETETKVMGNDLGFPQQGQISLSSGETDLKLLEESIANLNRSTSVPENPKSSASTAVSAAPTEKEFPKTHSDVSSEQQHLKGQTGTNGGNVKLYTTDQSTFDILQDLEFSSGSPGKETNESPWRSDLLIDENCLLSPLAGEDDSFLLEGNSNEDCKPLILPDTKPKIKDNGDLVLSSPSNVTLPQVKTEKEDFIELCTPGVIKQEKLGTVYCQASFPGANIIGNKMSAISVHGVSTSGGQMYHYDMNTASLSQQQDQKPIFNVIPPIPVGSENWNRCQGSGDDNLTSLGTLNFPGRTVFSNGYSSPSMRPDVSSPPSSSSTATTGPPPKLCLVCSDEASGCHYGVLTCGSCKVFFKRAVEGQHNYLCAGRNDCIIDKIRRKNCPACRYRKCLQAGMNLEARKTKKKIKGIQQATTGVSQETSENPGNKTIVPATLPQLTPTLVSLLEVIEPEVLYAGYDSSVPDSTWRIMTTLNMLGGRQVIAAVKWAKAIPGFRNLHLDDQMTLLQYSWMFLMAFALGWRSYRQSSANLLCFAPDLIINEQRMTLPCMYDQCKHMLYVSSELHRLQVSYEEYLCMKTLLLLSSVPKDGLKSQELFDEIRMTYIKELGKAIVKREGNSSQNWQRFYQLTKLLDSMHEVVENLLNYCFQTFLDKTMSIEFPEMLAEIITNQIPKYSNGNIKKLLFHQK
Kind of assay: Percent inhibition of glucocorticoid receptor transcriptional activity at Dexamethasone EC50; NA=not active.

Assay [3] deals with T3, Mineralocorticoid receptor (Homo sapiens, UniProt P08235).
T3 sequence (P08235 whole entry): T1 sequence (whole entry)
Kind of assay: Cross-reactivity as binding to human mineralocorticoid receptor (hMR); NA=not active.

The target in the next assay is T4, Androgen receptor (Homo sapiens, UniProt P10275).
T4 sequence (P10275 whole entry): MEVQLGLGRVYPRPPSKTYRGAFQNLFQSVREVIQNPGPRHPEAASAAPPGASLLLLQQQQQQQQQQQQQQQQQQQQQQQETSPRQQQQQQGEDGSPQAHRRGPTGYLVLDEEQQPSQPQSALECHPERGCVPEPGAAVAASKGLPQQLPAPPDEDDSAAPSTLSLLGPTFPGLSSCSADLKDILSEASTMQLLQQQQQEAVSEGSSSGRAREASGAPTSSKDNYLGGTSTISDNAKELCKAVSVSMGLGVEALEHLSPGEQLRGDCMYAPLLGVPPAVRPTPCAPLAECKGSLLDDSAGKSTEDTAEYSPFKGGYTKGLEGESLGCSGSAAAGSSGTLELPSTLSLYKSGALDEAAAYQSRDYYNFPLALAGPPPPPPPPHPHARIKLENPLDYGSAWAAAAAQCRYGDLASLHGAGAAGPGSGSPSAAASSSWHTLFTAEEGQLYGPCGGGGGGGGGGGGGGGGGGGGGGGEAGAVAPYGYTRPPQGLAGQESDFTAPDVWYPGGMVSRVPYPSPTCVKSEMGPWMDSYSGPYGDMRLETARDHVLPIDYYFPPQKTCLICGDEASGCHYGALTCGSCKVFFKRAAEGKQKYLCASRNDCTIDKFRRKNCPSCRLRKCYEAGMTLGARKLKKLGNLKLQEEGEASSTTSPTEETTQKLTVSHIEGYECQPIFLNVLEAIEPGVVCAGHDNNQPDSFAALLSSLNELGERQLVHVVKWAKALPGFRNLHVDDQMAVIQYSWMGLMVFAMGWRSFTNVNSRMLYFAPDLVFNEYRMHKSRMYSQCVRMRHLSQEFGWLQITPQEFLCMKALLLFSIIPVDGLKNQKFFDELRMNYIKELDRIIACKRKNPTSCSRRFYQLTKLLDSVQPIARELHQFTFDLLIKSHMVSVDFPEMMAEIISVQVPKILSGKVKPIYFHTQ
In words: Cross-reactivity as binding to human androgen receptor (hAR).

Active and inactive are the calls of the source. No cut-off for these calls is given here.

With `CC1=CC(C)(C)Nc2ccc(-c3ccc([N+](=O)[O-])s3)cc21`, the Efficacy result in assay [1] and in assay [2] was “inactive” in each case. The 50% inhibitory concentration (IC50) entry in assay [3] is “Not Active”; on Androgen receptor, 1460 nM.
